Biological target: T1, GIVA cPLA2 (cPLA2α) (Homo sapiens, UniProt P47712)
T1 construct: gene PLA2G4A
T1 sequence (P47712 1-749): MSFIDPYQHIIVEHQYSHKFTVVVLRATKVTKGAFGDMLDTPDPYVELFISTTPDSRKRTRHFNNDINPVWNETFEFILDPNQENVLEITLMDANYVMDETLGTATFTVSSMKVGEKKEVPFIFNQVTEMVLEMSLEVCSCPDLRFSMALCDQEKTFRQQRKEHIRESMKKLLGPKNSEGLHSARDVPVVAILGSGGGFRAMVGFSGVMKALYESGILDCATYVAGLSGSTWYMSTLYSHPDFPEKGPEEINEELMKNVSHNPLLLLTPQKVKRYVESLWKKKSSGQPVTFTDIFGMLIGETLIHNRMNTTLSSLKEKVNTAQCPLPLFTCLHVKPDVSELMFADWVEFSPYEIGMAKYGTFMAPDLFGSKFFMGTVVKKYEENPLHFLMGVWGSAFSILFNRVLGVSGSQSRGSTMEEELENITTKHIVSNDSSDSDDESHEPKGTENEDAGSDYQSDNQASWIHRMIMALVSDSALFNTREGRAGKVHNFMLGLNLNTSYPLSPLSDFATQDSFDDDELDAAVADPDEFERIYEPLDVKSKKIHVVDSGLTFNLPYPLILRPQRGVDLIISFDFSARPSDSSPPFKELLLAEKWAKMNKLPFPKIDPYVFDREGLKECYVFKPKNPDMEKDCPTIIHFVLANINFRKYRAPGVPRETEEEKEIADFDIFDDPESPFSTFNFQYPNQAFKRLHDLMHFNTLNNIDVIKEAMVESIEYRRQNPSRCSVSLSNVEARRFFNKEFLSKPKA
Test: in vitro mixed micelle modified Dole assay ([…]-PAPC)
Assay type: biochemical

In vitro enzyme activity / GIVA cPLA2 / XI(50)	SMILES
0.0072 ± 0.0007 mole fraction (XI(50))	CC/C=C\C/C=C\C/C=C\C/C=C\CC/C=C/CSCC(=O)C(F)(F)F [AVX001, (6E,10Z,13Z,16Z,19Z)-1,1,1-trifluoro-4-thiadocosa-6,10,13,16,19-pentaen-2-one]
0.0057 ± 0.001 mole fraction (XI(50))	CC/C=C\C/C=C\C/C=C\C/C=C\C/C=C\CCSCC(=O)C(F)(F)F [AVX002, 1,1,1-trifluoro-3-(((3Z,6Z,9Z,12Z,15Z)-octadeca-3,6,9,12,15-pentaen-1-yl)thio)propan-2-one]

From paper PMC6341602, “Cytosolic group IVA phospholipase A2 inhibitors, AVX001 and AVX002, ameliorate collagen-induced arthritis” (Arthritis Research & Therapy, 2019)
